Assay results reported in patent US10028992B2, “Methods of treating muscular dystrophy” (BOARD OF REGENTS OF THE NEVADA SYSTEM OF HIGHER EDUCATION …, priority 2012, dated 2018).
Where “and” joins values, the source holds several entries; their conditions need not be identical. Identical values can stand only once. Like-named read-outs stand apart in the source and are kept apart here.

Tested on: α7 integrin promoter
Experiment: muscle cell-based assay: α7βgal+/− myoblasts/myotubes, LacZ reporter, β-galactosidase cleavage of FDG
Design: species or system mouse
Summary of the method: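 Primary α7βgal+/− mouse myoblasts (LacZ knocked into α7 integrin exon 1, promoter retained), differentiated; promoter activity read as β-galactosidase conversion of non-fluorescent FDG to fluorescein. Hits followed by dose-response, western analysis and myostatin counterscreen.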

SMILES	Results in a α7+/− β-galactosidase assay, Myotubes, 0.5 uM (Myotubes, compound at 0.5 uM)	Results in a α7+/− β-galactosidase assay, Myotubes, 1 uM (Myotubes, compound at 1 uM)	Results in a α7+/− β-galactosidase assay, Myotubes, 5 uM (Myotubes, compound at 5 uM)	Results in a α7+/− β-galactosidase assay, Myotubes, 10 uM (Myotubes, compound at 10 uM)	Results in a α7+/− β-galactosidase assay, Myotubes, 20 uM (Myotubes, compound at 20 uM)	Results in a α7+/− β-galactosidase assay, Myotubes, 40 uM (Myotubes, compound at 40 uM)	Results in a α7+/− β-galactosidase assay, Myotubes, 0.5 uM	Results in a α7+/− β-galactosidase assay, Myotubes, 1 uM	Results in a α7+/− β-galactosidase assay, Myotubes, 5 uM	Results in a α7+/− β-galactosidase assay, Myotubes, 10 uM	Results in a α7+/− β-galactosidase assay, Myotubes, 20 uM	Results in a α7+/− β-galactosidase assay, Myotubes, 40 uM
N#Cc1ccc(Sc2nc3ccccc3[nH]2)cc1C#N [drawing 376]	0.09647	0.1219	0.01154	−0.06084	−0.00606	−0.1145						
COc1cc(/C=C/CN2CCN(Cc3ccc(C)o3)C(CCO)C2)ccc1O (stereo not shown) [drawing 377]		0.1027 and 0.08207										
COc1ccccc1C(=O)OCc1ccc2sc(C)nc2c1 [drawing 378]	−0.04468	0.06534	0.05342	−0.1134	−0.02544	−0.1114						
NC(=O)COc1ccc(C(=O)/C=C2\C(=O)Nc3ccccc32)cc1 [drawing 379]	0.04116	0.06227	0.08579	−0.1303	−0.2553	−0.6822						
CC1(C)Cc2ccccc2-c2nc3n(c(=O)c21)CCS3 [drawing 380]	0.09354	0.08602	−0.04079	−0.05719	−0.329	−0.421						
CN(/C(=N/S(=O)(=O)c1cccs1)c1ccccc1)c1ccccc1 [drawing 381]	−0.07971	0.1809	0.01531	−0.02849	0.1022	−0.209						
CSc1ccc(S(=O)(=O)NCc2ccccc2)cc1 [drawing 382]	−0.1565	−0.2515	0.02007	0.1738	−0.1735	−0.07044						
O=C1Nc2ccccc2/C1=C/c1ccccc1F [drawing 383]	−0.06236	−0.04077	−0.1089	0.02646	−0.3381	−0.4226						
CN1C(=O)/C(=C(/C#N)c2nc3ccccc3[nH]2)c2ccccc21 [drawing 384]	−0.07617	−0.02413	−0.1571	0.1257	−0.2111	−0.2699						
CC1CC(C)(C)N=C(S)N1CC(=O)N(C)Cc1ccccc1 (stereo not shown) [drawing 385]	0.02464	−0.02121	−0.03109	0.2144	−0.02703	0.0594						
Cc1noc(C)c1COc1ccc(C(=O)NCCc2ccccn2)cc1 [drawing 386]	0.08027	0.1153	−0.04323	0.2279	−0.2443	−0.1582						
COCCSc1ccccc1C(=O)Nc1cc(C)cc(C)c1 [drawing 387]	−0.1267	0.09331	−0.1086	0.1203	−0.2283	−0.2601						
CC(=O)Nc1ccc(NC(=O)c2cc(=O)c3cc(C)cc(C)c3o2)cc1 [drawing 388]	−0.05012	−0.03106	−0.1165	0.3265	−0.3385	−0.2657						
COc1ccc(-c2c[nH]nc2-c2ccc(OC)cc2)cc1 [drawing 389]							−0.01143	0.1883	0.3888	0.8585	0.03803	−0.2518
Cc1cccc(Sc2nc(-c3ccccc3)ccc2C#N)c1 [drawing 390]	−0.06701	−0.1813	0.02472	0.2322	−0.3206	−0.2803						
CCC(C)NC(=O)CSc1nnc(COc2ccc(Br)cc2)o1 (stereo not shown) [drawing 391]	−0.04347	−0.169	−0.2461	−0.2857	−0.2196	−0.2848						
Cc1ccc(N2C(=O)C3NN=C(C(=O)OCc4ccccc4)C3C2=O)cc1 (stereo not shown) [drawing 392]	−0.03749	−0.0238	−0.168	−0.2332	0.00778	−0.01262						
Cc1cc([N+](=O)[O-])ccc1NC(=O)C(C)N1CCN(c2ccccn2)CC1 (stereo not shown) [drawing 393]	0.0774	0.107	−0.1042	−0.1154	−0.297	−0.3729						
CCc1nc(/C=C2\C(=O)Nc3ccccc32)c[nH]1 [drawing 394]	0.2902	0.2582	−0.08702	−0.09062	−0.0001	−0.1577						
O=C(Cn1nc(-c2ccc(Cl)cc2)ccc1=O)N1CCC2(CC1)OCCO2 [drawing 395]							0.1803	0.1627	−0.1502	−0.1782	−0.08792	−0.2213
CCOC(=O)C1(Cc2cccc(Cl)c2)CCCN(C(=O)CCSC)C1 (stereo not shown) [drawing 396]	−0.05788	0.02732	−0.3174	−0.211	−0.1814	−0.4242						
Cc1cccc2c(/N=N/c3ccc(S(=O)(=O)Nc4ccc(Cl)cc4)cc3[N+](=O)[O-])c(O)[nH]c12 [drawing 397]	−0.03979	−0.05535	−0.02922	0.02994	−0.2047	−0.2727						
CC(C)c1ccc(OC(=O)c2cccc(S(=O)(=O)N3CCN(C)CC3)c2)cc1 [drawing 398]	−0.02436	0.01638	−0.2473	0.3054	−0.1863	−0.2246						
CC(C)c1ccc(NC(=O)CN2C(=O)c3ccccc3S2(=O)=O)cc1 [drawing 399]	−0.1815	−0.0433	0.02954	−0.2491	−0.1353	−0.1392						
NC(=O)c1sc2nc3c(cc2c1N)CCC3 [drawing 400]	−0.1099	−0.1307	−0.1528	0.5381	0.07998	0.08496						
